One assay concerns the target T1, albumin (Homo sapiens, UniProt P02768). Nature of the assay: pH dependence of binding affinity for albumin. The following applies: pH above about 3. The text has this: Adjusting the pH of the fluids to the acidic and/or basic range makes it possible to selectively influence the binding of different substances to the respective carrier proteins or adsorbers. […] For example, the binding of copper ions to albumin can be weakened in this way so that free, dissolved copper ions in the following filter can be removed by dialysis, filtration, diafiltration, centrifugation, a field, or sorting by weight difference. Analogously, the pH of the fluid can be adjusted to the basic range so that the toxins liberated in the alkaline range can then be eliminated from the fluid by dialysis, filtration or diafiltration. […] A pH range of 8-13 is often preferred.
Devices for adjusting the pH include especially devices for adding acid or base, for example metering pumps. Appropriate acids or bases arc aqueous solutions of biologically compatible acids or bases. It is generally preferable to use acids or bases whose conjugate bases or acids are ions that occur naturally in the human organism. Examples of acids which can be used are hydrochloric acid, sulfuric acid or acetic acid, hydrochloric acid being preferred. Examples of bases which can be used are sodium hydroxide solution or potassium hydroxide solution, sodium hydroxide solution being preferred. […]
T1 sequence (P02768 25-609): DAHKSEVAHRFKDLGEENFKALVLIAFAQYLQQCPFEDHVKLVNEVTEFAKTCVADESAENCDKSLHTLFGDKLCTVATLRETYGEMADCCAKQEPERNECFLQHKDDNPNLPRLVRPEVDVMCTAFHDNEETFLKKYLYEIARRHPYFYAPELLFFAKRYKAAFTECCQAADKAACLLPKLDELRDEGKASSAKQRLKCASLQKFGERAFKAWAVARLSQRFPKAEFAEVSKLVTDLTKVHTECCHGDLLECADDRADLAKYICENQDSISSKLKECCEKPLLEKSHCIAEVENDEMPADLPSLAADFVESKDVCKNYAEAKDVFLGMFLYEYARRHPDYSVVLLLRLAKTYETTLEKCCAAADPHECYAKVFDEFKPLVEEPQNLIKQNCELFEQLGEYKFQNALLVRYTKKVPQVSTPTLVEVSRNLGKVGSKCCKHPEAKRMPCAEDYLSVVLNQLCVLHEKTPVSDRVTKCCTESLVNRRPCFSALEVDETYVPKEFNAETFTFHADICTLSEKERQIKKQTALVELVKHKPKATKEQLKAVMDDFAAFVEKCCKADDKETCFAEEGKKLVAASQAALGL
Copper(II): the “binding affinity for albumin” value was “particularly high binding affinity”.

Staying with this assay, now noted: pH range around 2.
Regarding Copper(II), the “binding affinity for albumin” value is given as “significantly lowered”.

For the next assay, the target named is T1, albumin.
Assay: not given
The following applies: binding to albumin; reported association constants; cited from earlier work.
On to `N[C@@H](Cc1c[nH]c2ccccc12)C(=O)O` [L-tryptophan], for which the “Association constant, KA” value was 10000 M⁻¹.

For the compound `Cl` [Chloride], the “Association constant, KA” value was 720 M⁻¹. For `C=CC1=C(C)c2cc3[n-]c(cc4[n-]c(cc5nc(cc1n2)C(C)=C5C=C)c(C)c4CCC(=O)O)c(CCC(=O)O)c3C.O.[Fe+2]` [Hematin], the “Association constant, KA” value was 1.1e+08 M⁻¹. Consider t-25-(OH)2—Vitamin D3, for which the “Association constant, KA” value was 50000 M⁻¹.

As for Copper(II), the “Association constant, KA” value was 1.5e+16 M⁻¹. Turning to `[Ca+2]` [Calcium], the “Association constant, KA” value is 1510 M⁻¹. Regarding `C=C1CC[C@H](O)C/C1=C/C=C1\CCC[C@]2(C)[C@@H]([C@H](C)CCCC(C)(C)O)CC[C@@H]12` [25,OH—VitaminD3], the “Association constant, KA” value was 600000 M⁻¹. Consider `[Mg+2]` [Magnesium], for which the “Association constant, KA” value is 100 M⁻¹. As to `C/C1=C2N=C(/C=C3N=C(/C(C)=C4\[N-]C(C(CC(N)=O)C4(C)CCC(=O)NCC(C)OP(=O)([O-])OC4C(CO)OC(n5cnc6cc(C)c(C)cc65)C4O)C4(C)N=C1C(CCC(N)=O)C4(C)CC(N)=O)C(CCC(N)=O)C\3(C)C)C(CCC(N)=O)C/2(C)CC(N)=O.O.[Co+3].[OH-]` (centres unmarked) [Aquocobalamin], the “Association constant, KA” value was 2e+07 M⁻¹. As for `[Zn+2]` [Zinc(II)], the “Association constant, KA” value was 3.4e+07 M⁻¹. Turning to `CC(=O)[C@H]1CC[C@H]2[C@@H]3CCC4=CC(=O)CC[C@]4(C)[C@H]3CC[C@]12C` [Progesterone], the “Association constant, KA” value was 360000 M⁻¹.

Regarding `C[C@]12CC[C@H]3[C@@H](CCC4=CC(=O)CC[C@@]43C)[C@@H]1CC[C@@H]2O` [Testosterone], the “Association constant, KA” value is 24000 M⁻¹.

With `CCCCC[C@H](O)/C=C/[C@H]1[C@H](O)CC(=O)[C@@H]1CCCCCCC(=O)O` [Eicosanoids (PGE1), PGE1], the “Association constant, KA” value was 70000 M⁻¹. As for `C[C@]12CCC(=O)C=C1CC[C@@H]1[C@@H]2[C@@H](O)C[C@@]2(C)[C@H]1CC[C@]2(O)C(=O)CO` [Cortisol], the “Association constant, KA” value is 5000 M⁻¹. Consider `C[C@]12CCC(=O)C=C1CC[C@@H]1[C@@H]2[C@@H](O)C[C@]2(C=O)[C@@H](C(=O)CO)CC[C@@H]12` [Aldosterone], for which the “Association constant, KA” value was 3200 M⁻¹.

The values above are taken from patent publication US11351291B2, “Systems or apparatuses and methods for performing dialysis” (ADVITOS GMBH, priority 2016, dated 2022).
